Values joined by “and” are separate entries in the source; they are usually repeats but may differ in a detail not shown here. Equal entries are not always repeated. “Also recorded” adds a separate entry of the source. Where two headings read alike, the source gives them in different places.
Columns and labels:
RPE65 [1] = biological target: RPE65 (Bos taurus, UniProt Q28175); assay: RPE65 activity assay in vitro (11-cis-retinol production by bovine RPE microsomes); conditions: for RPE65 inhibition (in words): in vitro
[2] = Observation of animals after treatment (toxicity); assay type: in vivo, BALB/cJ mice; conditions: 10 mg/kg IP; even 24 h after treatment
Excerpt: Vehicle-only and nontreated animals served as controls. […] Three animals were used for each time point.

RPE65 [3] = conditions: 10 mg/kg IP; for 11cRAL / RE: mean ± SD, n = 3 mice
VAP-1 [4] = biological target: T1, VAP-1 (Mus musculus, UniProt O70423); assay: VAP-1 oxidation assay (mouse aorta homogenates); conditions: role: substrate; for ACU-5201 (deaminated product) formed / concentration of tested compound in mouse aorta homogenate: 100 μM, mean ± SD, n = 3
T1 sequence (O70423 1-765): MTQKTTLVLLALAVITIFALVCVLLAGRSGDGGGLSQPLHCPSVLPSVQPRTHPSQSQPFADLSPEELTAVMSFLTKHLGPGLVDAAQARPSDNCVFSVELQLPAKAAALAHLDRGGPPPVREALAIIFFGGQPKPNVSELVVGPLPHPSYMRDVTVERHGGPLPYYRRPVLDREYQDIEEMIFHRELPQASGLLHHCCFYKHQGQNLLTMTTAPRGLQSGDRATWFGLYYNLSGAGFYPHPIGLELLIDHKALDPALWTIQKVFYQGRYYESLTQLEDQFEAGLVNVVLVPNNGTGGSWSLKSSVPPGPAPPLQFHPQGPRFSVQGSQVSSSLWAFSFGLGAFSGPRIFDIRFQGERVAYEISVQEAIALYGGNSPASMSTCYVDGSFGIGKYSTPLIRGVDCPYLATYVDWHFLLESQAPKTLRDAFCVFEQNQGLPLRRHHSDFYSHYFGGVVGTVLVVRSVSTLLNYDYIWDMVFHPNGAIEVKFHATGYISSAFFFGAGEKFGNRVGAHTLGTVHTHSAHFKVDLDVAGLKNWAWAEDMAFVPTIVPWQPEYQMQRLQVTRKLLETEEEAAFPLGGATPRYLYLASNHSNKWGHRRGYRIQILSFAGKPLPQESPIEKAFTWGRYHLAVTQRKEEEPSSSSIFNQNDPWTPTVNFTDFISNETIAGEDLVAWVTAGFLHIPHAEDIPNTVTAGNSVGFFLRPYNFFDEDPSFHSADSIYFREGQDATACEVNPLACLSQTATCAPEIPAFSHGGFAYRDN

[5] = test system: mouse liver microsomes (CYP-450 enzymes)
in vitro = conditions: mouse, microsomes
VAP-1 [6] = conditions: role: substrate; cited from earlier work
RPE65 [7] = conditions: among first targeted inhibitors (amine derivatives of retinol); cited from earlier work
[8] = bovine RPE microsomes, mean ± SD, n = 3
[9] = read-out: IC50 ± SD, bovine RPE microsomes, mean ± SD, n = 3

RPE65 (Bos taurus, UniProt Q28175), sequence (Q28175 whole entry): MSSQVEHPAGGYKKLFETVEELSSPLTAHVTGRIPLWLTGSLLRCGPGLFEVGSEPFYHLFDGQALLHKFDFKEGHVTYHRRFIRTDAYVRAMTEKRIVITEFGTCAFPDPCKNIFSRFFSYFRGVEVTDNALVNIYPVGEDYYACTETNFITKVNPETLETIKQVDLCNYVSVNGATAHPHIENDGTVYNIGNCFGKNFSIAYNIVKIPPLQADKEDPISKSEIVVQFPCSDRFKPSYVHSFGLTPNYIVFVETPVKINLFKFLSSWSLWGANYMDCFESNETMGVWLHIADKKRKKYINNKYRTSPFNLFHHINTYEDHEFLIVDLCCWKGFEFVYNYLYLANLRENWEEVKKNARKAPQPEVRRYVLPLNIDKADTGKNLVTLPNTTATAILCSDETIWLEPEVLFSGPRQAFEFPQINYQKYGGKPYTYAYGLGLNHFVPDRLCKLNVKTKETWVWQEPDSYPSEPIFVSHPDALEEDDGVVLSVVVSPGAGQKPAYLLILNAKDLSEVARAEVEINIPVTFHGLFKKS

## NC(CO)Cc1ccc(OCC2CCCCC2)cc1 (stereo not shown) [Compound 6c, 2-Amino-3-(4-(cyclohexylmethoxy)phenyl)propan-1-ol]
RPE65 [1]; [8]
  IC50 ± SD: No Inhibition
RPE65 [1]
  RPE65 inhibition (in words): lack of dose-response relationship

## CC(CN)c1cccc(OCC2CCCCC2)c1 (stereo not shown) [Compound 11c, 2-(3-(Cyclohexylmethoxy)phenyl)propan-1-amine]
RPE65 [1]
  RPE65 inhibition (in words): weaker inhibition; also recorded: the lowest level of inhibition
RPE65 [1]; [9]
  IC50: 6730 ± 260 nM

## NCCC(O)c1ccc(OCC2CCCCC2)cc1 (stereo not shown) [Compound 3b, 3-Amino-1-(4-(cyclohexylmethoxy)phenyl)propan-1-ol]
RPE65 [1]
  IC50: 8980 ± 3440 nM

## NCC(O)c1cccc(OCC2CCCCC2)c1 (stereo not shown) [Compound 11a]
RPE65 [1]
  RPE65 inhibition (in words): substantially less potent than 3a
RPE65 [1]; [9]
  IC50: 3190 ± 810 nM

## CC(CCN)c1cccc(OCC2CCCCC2)c1 (stereo not shown) [Compound 16b, 3-(3-(Cyclohexylmethoxy)phenyl)butan-1-amine]
[2]
  toxicity observed in treated animals: all animals showed impaired body movement even 24 h after treatment
RPE65 [1]
  RPE65 inhibition (in words): the lowest level of inhibition
  decrease in inhibition of RPE65 relative to 3a: 4 fold
RPE65 [1]; [9]
  IC50: 820 ± 500 nM
RPE65 [1]; relative to 16a
  potency relative to 16a: roughly doubled
RPE65 [3]
  RPE65 inhibition in vivo (in words): minor RPE65 inhibition 4 h after treatment, but animals were fully dark-adapted after 24 h
RPE65 [3]; 0 h after light exposure
  11cRAL: 25.6 ± 2.7 pmol/eye
  RE: 291.5 ± 33.1 pmol/eye
RPE65 [3]; 4 h
  11cRAL: 94.4 ± 11.4 pmol/eye
  RE: 435.5 ± 27.5 pmol/eye
RPE65 [3]; 24 h
  11cRAL: 370.5 ± 9.1 pmol/eye
  RE: 123.9 ± 36.4 pmol/eye

## CNCCC(O)c1cccc(OCC2CCCCC2)c1 (stereo not shown) [Compound 16e, 1-(3-(Cyclohexylmethoxy)phenyl)-3-(methylamino)propan-1-ol]
After single IP of 3a, 1 h
  16e level in eye: 0.000 pmol/eye
  16e level in serum: 0.00 pmol/mL serum
After single IP of 16e (10 mg/kg)
  levels in eye and plasma (in words): decreased significantly at 4 h and approached baseline levels in both eye and plasma at 24 h after injection
After single IP of 16e, 24 h
  16e level in serum: 0.000 pmol/mL serum
read-out: 16e level in serum, after single IP of 16e, 4 h, 10 mg/kg
  concentration: 0.111 µM
VAP-1 [4]
  VAP-1 oxidative metabolism (in words): resistant to VAP-1 oxidative deamination
VAP-1 [4]; 0 h
  ACU-5201 (deaminated product) formed: 0.00 ± 0.00 µM
  concentration of tested compound in mouse aorta homogenate: 100.32 ± 0.95 µM
VAP-1 [4]; 1 h
  ACU-5201 (deaminated product) formed: 0.48 ± 0.68 µM
  concentration of tested compound in mouse aorta homogenate: 101.20 ± 0.89 µM
  reduction of the formation of ACU-5201: about 99.5%
VAP-1 [4]; 4 h
  ACU-5201 (deaminated product) formed: 3.76 ± 0.29 µM
  concentration of tested compound in mouse aorta homogenate: 89.07 ± 0.49 µM
  reduction of the formation of ACU-5201: ~96.25%
[5]
  Km: 39 µM
In vitro
  Km: 39 µM
RPE65 [3]; 0 h after light exposure
  11cRAL: 13.8 ± 1.5 pmol/eye
  RE: 296.6 ± 65.2 pmol/eye
RPE65 [3]; 4 h
  11cRAL: 22.5 ± 4.5 pmol/eye
  RE: 393.5 ± 60.0 pmol/eye
RPE65 [3]; 24 h
  level of 11cRAL as percent of the dark-adapted level: 53%
  11cRAL: 201.8±53.2 pmol/eye
  RE: 215.4±99.2 pmol/eye and 213.4 ± 99.2 pmol/eye

## NCCc1ccc(F)c(OCC2CCCCC2)c1 [Compound 11d, 2-(3-(Cyclohexylmethoxy)-4-fluorophenyl)ethan-1-amine]
RPE65 [1]; [9]
  IC50: 1230 ± 130 nM
RPE65 [1]; relative to 11b
  decrease in RPE65 inhibition relative to 11b: 3 fold

## NC(CCO)c1cccc(OCC2CCCCC2)c1 (stereo not shown) [Compound 6a, 3-Amino-3-(3-(cyclohexylmethoxy)phenyl)propan-1-ol]
RPE65 [1]; [8]
  IC50 ± SD: No Inhibition
RPE65 [1]
  RPE65 inhibition (in words): lack of inhibitory activity; also recorded: no inhibition in vitro

## NCCc1cccc(OCC2CCCCC2)c1 [Compound 11b, 2-(3-(Cyclohexylmethoxy)phenyl)ethan-1-amine]
RPE65 [1]; bovine RPE microsomes
  IC50: 420 ± 110 nM
RPE65 [1]; relative to 11a
  more potent activity toward RPE65 relative to amine 11a: 7.6 times
RPE65 [3]
  RPE65 inhibition in vivo (in words): did not display hallmarks of inhibited RPE65 activity in vivo
RPE65 [3]; 0 h after light exposure
  11cRAL: 16.2 ± 16.2 pmol/eye
  RE: 225.1 ± 29.5 pmol/eye
RPE65 [3]; 24 h
  11cRAL: 137.4 ± 44.5 pmol/eye
  RE: 377.3 ± 54.4 pmol/eye

## COc1cc(NC(C)CCCN)c2ncccc2c1 (stereo not shown) [primaquine]
VAP-1 [6]
  VAP-1 metabolism (in words): shown important

## N=C(N)NCCCCCCNC(=O)COC(=O)NCCCCNCCCN [tresperimus]
VAP-1 [6]
  VAP-1 metabolism (in words): shown important

## NCCC(O)c1ccccc1OCC1CCCCC1 (stereo not shown) [Compound 3c, 3-Amino-1-(2-(cyclohexylmethoxy)phenyl)propan-1-ol]
RPE65 [1]; [9]
  IC50: 4670 ± 1230 nM

## CC1=C(/C=C/C(C)=C/C=C/C(C)=C/CN)C(C)(C)CCC1 [retinylamine]
RPE65 [7]
  potency as RPE65 inhibitor (in words): the most potent among them

## NC(CO)Cc1cccc(OCC2CCCCC2)c1 (stereo not shown) [Compound 6b, 2-Amino-3-(3-(cyclohexylmethoxy)phenyl)propan-1-ol]
RPE65 [1]; [8]
  IC50 ± SD: No Inhibition
RPE65 [1]
  RPE65 inhibition (in words): no inhibition in vitro

## CC(CN)Cc1ccc(F)c(OCC2CCCCC2)c1 (stereo not shown) [Compound 16d, 3-(3-(Cyclohexylmethoxy)-4-fluorophenyl)-2-methylpropan-1-amine]
RPE65 [1]; [8]
  IC50 ± SD: No Inhibition
RPE65 [1]
  RPE65 inhibition (in words): inactive
RPE65 [3]; 0 h after light exposure
  11cRAL: 23.5 ± 2.3 pmol/eye
  RE: 259.9 ± 54.6 pmol/eye
RPE65 [3]; 4 h
  11cRAL: 398.0±26.6 pmol/eye and 413.2 ± 8.1 pmol/eye
  RE: 101.1 ± 12.9 pmol/eye
RPE65 [3]; 24 h
  11cRAL: 398.0 ± 26.6 pmol/eye
  RE: 122.7 ± 30.6 pmol/eye

## CC(CN)Cc1cccc(OCC2CCCCC2)c1 (stereo not shown) [Compound 16c]
RPE65 [1]
  IC50: 590 ± 70 nM
RPE65 [3]; 0 h after light exposure
  11cRAL: 17.4 ± 0.8 pmol/eye
  RE: 253.5 ± 22.5 pmol/eye
RPE65 [3]; 4 h
  11cRAL: 323.0 ± 5.1 pmol/eye
  RE: 111.9 ± 18.5 pmol/eye
RPE65 [3]; 24 h
  11cRAL: 253.5 ± 9.0 pmol/eye
  RE: 85.6 ± 12.7 pmol/eye

## NCCCc1cccc(OCC2CCCCC2)c1 [Compound 16a]
RPE65 [1]; [9]
  IC50: 1550 ± 300 nM
RPE65 [1]
  decrease in inhibition of RPE65 relative to 3a: 8 fold
